The conditions of the series: pH 6.5.

Molecules are shown by their SMILES.

Method: Human gastro-intestinal juice was obtained from healthy male volunteers who had been fasting for 8 h. A tube was introduced intranasally after local anaesthesia with xylocaine, and gastric juice was collected. Thereafter one standardized meal was given 1 h before sampling of duodenal and distal jejunum juice and another the next morning before the collection of distal ileal juice. After centrifugation the gastric and intestinal juices were frozen in aliquots of 1 ml and stored at -20° C. […] The peptide or peptide analog (10 μl of 10 mM peptide in 0.9% aqueous NaCl) was added to 190 μl of undiluted juice at 37° C. Aliquots of 25 μl were withdrawn at intervals and mixed with 100 μl acetone to stop the reaction. After centrifugation for 10 min at 10,000 g, 10 μl of the supernatant was analyzed by reversed phase HPLC. […] Analysis was carried out in a Varian 5000 HPLC analyzer equipped with a UV-detector (220 nm). Column Bondapak TM C18 (3.9×300 mm), eluant MeOH/0.025 M NH4 Ac (isocratic conditions), flow rate 1 ml/min. […] Protein: Bio-Rad protein assay. pH: Orion model SA720; pH-paper Merck (Darmstadt), range 4.0-7.0.

Consider `NC(=O)CC[C@@H]1NC(=O)[C@H](Cc2ccccc2)NC(=O)[C@H](Cc2ccc(O)cc2)NC(=O)CCSSC[C@@H](C(=O)N2CCC[C@H]2C(=O)N[C@H](CCCN=C(N)N)C(=O)NCC(N)=O)NC(=O)[C@H](CC(N)=O)NC1=O` [DDAVP, Mpa-Tyr-Phe-Gln-Asn-Cys-Pro-D-Arg-Gly-GlyNH2], for which the “DDAVP degraded (to about 50%)” value is “about 50%”.

The values are drawn from patent US5922680A, “Stabilized composition for oral administration of peptides” (Ferring, B.V., priority 1997, dated 1999).
